Reference: ChEMBL document CHEMBL1144867, “Antiviral amphipathic oligo- and polyribonucleotides: analogue development and biological studies” (J Med Chem, 2003)

System: MRC5
Test: Inhibitory activity of compound against human cytomegalovirus (HCMV) in MRC-5 cells.
Type: functional, cell-based

Nc1nc2c(ncn2COC(CO)CO)c(=O)[nH]1 [GANCICLOVIR]
EC50: 9.4 µM
